What was measured:
[1] = target: T1, WDR5 (Homo sapiens, UniProt P61964); details: for binding affinity for WDR5 (in words): FPA
[2] = target: T1, WDR5; assay: Thermal shift by differential scanning fluorimetry; format: binding; details: DSF; 10 μM, or ten-point dilution for 7k
[3] = target: WDR5-RBBP5 (Homo sapiens, UniProt P61964); format: biochemical; details: HEK293 lysates; lowest concentration tested (6.25 μM)
[4] = target: WDR5-c-MYC (Homo sapiens, UniProt P61964); format: biochemical; details: HEK293 lysates; lowest concentration tested (6.25 μM)
[5] = target: T1, WDR5; assay: biochemical

Row | SMILES | binding affinity for WDR5 (in words) [1] | WDR5 stabilization by thermal shift (in words) [2] | also measured
1 | COc1ccccc1S(=O)(=O)Nc1cc(Cl)ccc1O [Compound 5a, N-(5-Chloro-2-hydroxyphenyl)-2-methoxybenzenesulfonamide] | all binding affinity for WDR5 is lost |  | 
2 | O=S(=O)(Nc1cc(S(F)(F)(F)(F)F)ccc1O)c1cc(Br)ccc1O [Compound 5k, 5-Bromo-2-hydroxy-N-(2-hydroxy-5-(pentafluorosulfanyl)phenyl)benzenesulfonamide] |  |  | improved binding affinity in comparison to 5l ([1]; FPA Kd ratio vs trifluoromethyl cyclopropane 5l): ~ 5 fold
3 | O=C(O)c1cc(S(F)(F)(F)(F)F)cc(NS(=O)(=O)c2cc(Br)cc(Cl)c2O)c1O [Compound 6o, 3-((5-Bromo-3-chloro-2-hydroxyphenyl)sulfonamido)-2-hydroxy-5-(pentafluorosulfanyl)benzoic acid] |  | largest ΔTm | 
4 | N#CC1(c2cc(NS(=O)(=O)c3cc(Br)cc(Cl)c3O)c(O)c(C(=O)O)c2)CCC1 [Compound 6r, 3-((5-Bromo-3-chloro-2-hydroxyphenyl)sulfonamido)-5-(1-cyanocyclobutyl)-2-hydroxybenzoic acid] |  | largest ΔTm | disruption of the association WDR5-RBBP5 at the lowest concentration tested [3]: marked disruption; disruption of the association WDR5-c-MYC at the lowest concentration tested [4]: marked disruption
5 | N#CC1(c2cc(NS(=O)(=O)c3cc(Br)cc(Cl)c3O)c(O)c(C(=O)O)c2)CCCCC1 [Compound 6t, 3-((5-Bromo-3-chloro-2-hydroxyphenyl)sulfonamido)-5-(1-cyanocyclohexyl)-2-hydroxybenzoic acid] |  | largest ΔTm | 
6 | CNC(=O)c1cc(C2(C#N)CCC2)cc(NS(=O)(=O)c2cc(Br)cc(Cl)c2O)c1O [Compound 7k, 3-((5-Bromo-3-chloro-2-hydroxyphenyl)sulfonamido)-5-(1-cyanocyclobutyl)-2-hydroxy-N-methylbenzamide] |  | concentration-dependent response | 
7 | N#CC1(c2cc(NS(=O)(=O)c3cc(Br)ccc3O)c(O)c(C(=O)Nc3nc[nH]n3)c2)CCC1 [Compound 7n, 3-((5-Bromo-2-hydroxyphenyl)sulfonamido)-5-(1-cyanocyclobutyl)-2-hydroxy-N-(1H-1,2,4-triazol-3-yl)benzamide] |  |  | Kd [5]: 0.046 ± 0.014 µM
8 | COCCNC(=O)c1cc(C2(C#N)CCC2)cc(NS(=O)(=O)c2cc(Br)ccc2O)c1O [Compound 7o, 3-((5-Bromo-2-hydroxyphenyl)sulfonamido)-5-(1-cyanocyclobutyl)-2-hydroxy-N-(2-methoxyethyl)benzamide] |  |  | Kd [5]: 0.757 ± 0.017 µM
9 | COc1ccc(Br)cc1S(=O)(=O)Nc1cc(Cl)cc(S(C)(=O)=O)c1O [Compound 8, 5-Bromo-N-(5-chloro-2-hydroxy-3-(methylsulfonyl)phenyl)-2-methoxybenzenesulfonamide] | sub-micromolar affinity |  | 
10 | CNC(=O)c1cc(C2(C#N)CCC2)cc(NS(=O)(=O)c2cc(Br)ccc2OC)c1O [Compound 9, 3-((5-Bromo-2-methoxyphenyl)sulfonamido)-5-(1-cyanocyclobutyl)-2-hydroxy-N-methylbenzamide] | sub-micromolar affinity |  | 

Reference: article PMC6933084 (Journal of medicinal chemistry, 2019)
